Source: patent publication US8163909B2, “Substituted hydroxyethyl amine compounds as beta-secretase modulators and methods of use” (Amgen Inc., priority 2007, dated 2012)
Read-outs that look alike come from different tables or passages of the source.

What was measured:
[1] = system: Aβ40 in conditioned medium of cells stably expressing Amyloid Precursor Protein (APP); test: In vitro BACE cell-based assay (Aβ40 in conditioned medium, sandwich ELISA); details: Homo sapiens;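 further: compounds added as a dilution series, secreted peptide quantified by europium time-resolved fluorescence readout, potency fitted from percent of control versus compound concentration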
[2] = Microsomal stability assay, human liver microsomes;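 further: pooled human liver microsomes at 0.25 mg/mL with 1 µM compound and NADPH at 37 °C, pH 7.4, for 30 min, unchanged parent quantified by LC-MS/MS against the 0 min sample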
[3] = target: Beta Secretase enzyme (BACE) (Homo sapiens, UniProt P56817); test: In vitro enzymatic BACE FRET (fluorescence resonance energy transfer) assay; format: biochemical;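 further: fluorescence read after 1 h with 50 nM quenched peptide substrate spanning the BACE cleavage site, in pH 4.2 acetate buffer containing 10% DMSO and nonionic detergent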
Chain of Beta Secretase enzyme (BACE) (P56817 46-501): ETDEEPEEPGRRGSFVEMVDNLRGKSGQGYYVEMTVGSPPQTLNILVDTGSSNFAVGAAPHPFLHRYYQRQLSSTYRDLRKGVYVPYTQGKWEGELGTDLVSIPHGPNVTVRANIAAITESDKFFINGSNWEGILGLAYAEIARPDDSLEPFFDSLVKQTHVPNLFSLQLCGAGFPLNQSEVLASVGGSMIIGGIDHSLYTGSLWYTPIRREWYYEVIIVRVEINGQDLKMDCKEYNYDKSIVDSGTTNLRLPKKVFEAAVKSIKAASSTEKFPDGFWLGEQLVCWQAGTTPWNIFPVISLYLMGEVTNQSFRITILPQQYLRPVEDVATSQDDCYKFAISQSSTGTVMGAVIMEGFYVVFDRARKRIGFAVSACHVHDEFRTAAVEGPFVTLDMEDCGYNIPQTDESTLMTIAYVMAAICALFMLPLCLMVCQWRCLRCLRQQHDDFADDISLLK

CYP3A4 (CYP3A) = CYP3A4 (CYP3A) (Homo sapiens, UniProt P08684); test: in vitro; details: microsomes, pH 7.4;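 further: inhibition of CYP3A-mediated 1-hydroxymidazolam formation after 10 min incubation with NADPH, quantified by HPLC MS relative to metabolite produced without test compound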
Chain of CYP3A4 (CYP3A) (P08684 2-503): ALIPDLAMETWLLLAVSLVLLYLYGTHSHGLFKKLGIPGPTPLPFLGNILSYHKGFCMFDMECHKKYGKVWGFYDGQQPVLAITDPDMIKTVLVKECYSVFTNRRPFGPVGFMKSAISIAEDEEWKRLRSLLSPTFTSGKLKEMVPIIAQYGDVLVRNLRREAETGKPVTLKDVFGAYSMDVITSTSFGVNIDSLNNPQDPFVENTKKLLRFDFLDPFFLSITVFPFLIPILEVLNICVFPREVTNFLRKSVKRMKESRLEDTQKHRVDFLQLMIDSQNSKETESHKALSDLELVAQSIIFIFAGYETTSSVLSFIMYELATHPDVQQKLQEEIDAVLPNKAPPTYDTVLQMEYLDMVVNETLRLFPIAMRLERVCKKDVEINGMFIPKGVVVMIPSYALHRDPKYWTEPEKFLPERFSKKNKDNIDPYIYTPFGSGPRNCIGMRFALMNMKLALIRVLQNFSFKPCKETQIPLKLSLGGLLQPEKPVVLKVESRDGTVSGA

[4] = Microsomal stability assay, rat liver microsomes;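 further: rat liver microsomes (0.25 mg/mL) with about 1 µM compound plus 1 mM NADPH, pH 7.4, 37 °C for 30 min, parent left measured by LC-MS/MS against 0 min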
CYP2D6 = CYP2D6 (Homo sapiens, UniProt P10635); test: CYP2D6 inhibition assay (bufuralol, pooled human liver microsomes)
Chain of CYP2D6 (P10635 whole entry): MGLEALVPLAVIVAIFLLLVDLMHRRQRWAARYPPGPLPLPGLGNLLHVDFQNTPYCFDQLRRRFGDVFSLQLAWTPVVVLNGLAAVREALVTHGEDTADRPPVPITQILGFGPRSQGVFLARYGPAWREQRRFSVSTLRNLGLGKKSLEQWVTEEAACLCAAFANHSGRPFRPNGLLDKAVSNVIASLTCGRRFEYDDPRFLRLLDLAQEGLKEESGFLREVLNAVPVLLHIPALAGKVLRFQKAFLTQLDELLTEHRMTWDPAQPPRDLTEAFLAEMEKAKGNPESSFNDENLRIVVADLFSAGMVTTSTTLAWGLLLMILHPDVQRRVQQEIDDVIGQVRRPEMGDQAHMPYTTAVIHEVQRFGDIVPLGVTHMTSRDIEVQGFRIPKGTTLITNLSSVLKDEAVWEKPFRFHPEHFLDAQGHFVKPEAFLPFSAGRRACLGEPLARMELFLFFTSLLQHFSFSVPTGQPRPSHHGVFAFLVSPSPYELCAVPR

[5] = HEK293, HEK cell-based assay IC50, read-out: HEK cell assay
[6] = BACE enzyme assay IC50, read-out: BACE1 FRET assay
[7] = 2D6 IC50 (uM), CYP2D6 inhibition
[8] = HEK293, HEK cells, read-out: HEK cell assay (IC50)
[9] = read-out: BACE1 FRET assay (IC50)
[10] = HEK293, HEK cell-based assay, IC50's in uM, read-out: HEK cell assay
[11] = BACE enzyme assay, IC50's in uM, read-out: BACE1 FRET assay
[12] = 2D6 IC50 (uM), CYP enzyme inhibition
[13] = HEK293, HEK cells, read-out: HEK cell assay
[14] = BACE enzyme assay, read-out: BACE1 FRET assay
[15] = HEK293, cell-based assay, HEK cells, IC50's in uM, read-out: HEK cell assay
[16] = 2D6 IC50, CYP enzyme inhibition
[17] = HEK293, Table 2, HEK cells, read-out: HEK cell assay
[18] = Table 2, read-out: BACE1 FRET assay

Compound | IC50 (CYP3A4 (CYP3A)) | RLM ([4]; rat liver microsomes) | HLM ([2]; human liver microsomal data) | RLM ([4]; rat liver microsomal data) | IC50 (CYP2D6; [16]) | other results
CO[C@H](C)C(=O)N[C@@H](Cc1cc(F)cc(F)c1)[C@H](O)CN[C@H]1CC2(CCC2)Oc2c1cc(CC(C)C)nc2-c1nccn1C [compound 704] | ≤ 0.03 µM | 44 µL/min/mg | – | – | – | IC50 [1, 5]: 0.024 µM; HLM ([2]; human liver microsomes): 20 µL/min/mg; IC50 [3, 6]: 0.03 µM; IC50 (CYP2D6; [7]): ≥ 27 µM
CC(=O)N[C@@H](Cc1cc(F)cc(-c2ccco2)c1)[C@H](O)CN[C@H]1CC2(CCC2)Oc2ccc(CC(C)(C)C)cc21 [compound 646] | 2 µM | 344 µL/min/mg | – | – | – | IC50 [1, 8]: 0.104 µM; HLM ([2]; human liver microsomes): 326 µL/min/mg; IC50 [3, 9]: 0.004 µM; IC50 (CYP2D6; 2D6 IC50, CYP2D6 inhibition): 1.6 µM
COC(OC)C(=O)N[C@@H](Cc1cccc(C#N)c1)[C@H](O)CN[C@H]1CC2(CCC2)Oc2ncc(CC(C)(C)C)cc21 [compound 798] | 0.5 µM | – | 468 µL/min/mg | 423 µL/min/mg | – | IC50 [1, 10]: 0.005 µM; IC50 [3, 11]: 0.006 µM; IC50 (CYP2D6; [12]): 4.7 µM
COCC(=O)N[C@@H](Cc1cc(F)cc(F)c1)[C@H](O)CN[C@H]1CC2(CCC2)Oc2c1cc(CC(C)(C)C)nc2Nc1cccnc1 [compound 568] | 0.2 µM | – | 214 µL/min/mg | 304 µL/min/mg | – | IC50 [1, 13]: 0.019 µM; IC50 [3, 14]: 0.025 µM; IC50 (CYP2D6; [12]): 9.3 µM
CC(=O)N[C@@H](Cc1cc(F)cc(F)c1)[C@H](O)CN[C@H]1CC2(CCC2)Oc2ncc(C(F)(F)C(C)(C)C)cc21 [compound 627] | 2.1 µM | 166 µL/min/mg | – | – | – | IC50 [1, 8]: 0.047 µM; HLM ([2]; human liver microsomes): 829 µL/min/mg; IC50 [3, 9]: 0.007 µM; IC50 (CYP2D6; 2D6 IC50, CYP2D6 inhibition): 26.1 µM
CO[C@H](C)C(=O)N[C@H](Cc1cc(F)cc(-c2nccs2)c1)[C@@H](O)CN[C@H]1CC2(CCC2)Oc2ncc(Br)cc21 [compound 821] | 0.3 µM | – | 162 µL/min/mg | 243 µL/min/mg | – | IC50 [1, 10]: 0.558 µM; IC50 (CYP2D6; [12]): 0.5 µM
C#Cc1ccc(C[C@H](NC(=O)[C@@H](C)OC)[C@H](O)CN[C@H]2CC3(CCC3)Oc3ncc(CC(C)(C)C)cc32)cc1 [compound 884] | 0.1 µM | – | – | 55 µL/min/mg | 3.8 µM | IC50 [1, 15]: 0.097 µM; IC50 [3, 11]: 0.251 µM
CO[C@H](C)C(=O)N[C@@H](Cc1cccc(-c2nccs2)c1)[C@H](O)CN[C@H]1CC2(CCC2)Oc2ncc([C@@H]3CC3(C)C)cc21 [compound 905] | 0.2 µM | – | 60 µL/min/mg | 71 µL/min/mg | 0.9 µM | –
COCC(=O)N[C@@H](Cc1ccc(F)cc1)[C@H](O)CN[C@@H]1CC2(CCC2)Oc2c1cc(CC(C)(C)C)nc2-n1ccnc1 [compound 449] | 0.1 µM | – | – | 163 µL/min/mg | 0.8 µM | IC50 [1, 17]: 2.97 µM; IC50 [3, 18]: 2.9 µM
COC(OC)C(=O)N[C@@H](Cc1ccc(F)cc1)[C@H](O)CN[C@H]1CC2(CCC2)Oc2ncc(CC(C)(C)C)cc21 [compound 591] | 0.6 µM | 375 µL/min/mg | – | – | – | IC50 [1, 8]: 0.018 µM; IC50 [3, 9]: 0.01 µM; IC50 (CYP2D6; 2D6 IC50, CYP2D6 inhibition): 10.3 µM
COCC(=O)N[C@@H](Cc1ccc(F)cc1)[C@H](O)CN[C@H]1CC2(CCNC2)Oc2cnc(CC(C)(C)C)cc21 (stereo partly shown) [compound 696] | 2.9 µM | 44 µL/min/mg | – | – | – | IC50 [1, 5]: 0.778 µM; HLM ([2]; human liver microsomes): 32 µL/min/mg; IC50 (CYP2D6; [7]): ≥ 27 µM
CCCc1cnc2c(c1)[C@@H](NC[C@H](O)[C@@H](Cc1cc(F)cc(-c3nccs3)c1)NC(=O)COC)CC1(CCC1)O2 [compound 833] | 0.3 µM | – | 219 µL/min/mg | 189 µL/min/mg | – | IC50 [1, 10]: 2.28 µM; IC50 (CYP2D6; [12]): 0.9 µM
COCC(=O)N[C@@H](Cc1ccc2c(c1)OCO2)[C@@H](CN[C@H]1CC2(CCC2)Oc2ncc([C@H](F)C(C)(C)C)cc21)OC [compound 447] | 14 µM | – | – | – | 14 µM | IC50 [1, 17]: 3.99 µM; IC50 [3, 18]: 2.64 µM
CC(=O)N[C@@H](Cc1cc(F)cc(F)c1)[C@H](O)CN[C@H]1CC2(CCC2)Oc2c1cc(CC(C)(C)C)nc2Nc1ccccc1 [compound 598] | 6.9 µM | 102 µL/min/mg | – | – | – | IC50 [1, 8]: 0.26 µM; IC50 [3, 9]: 0.023 µM; IC50 (CYP2D6; 2D6 IC50, CYP2D6 inhibition): ≥ 27 µM
CC1(C)C[C@H]1c1cnc2c(c1)[C@@H](NC[C@@H](O)[C@H](Cc1cccc(-c3nccs3)c1)NC(=O)[C@@H]1CCCO1)CC1(CCC1)O2 [compound 907] | 0.1 µM | – | 77 µL/min/mg | 78 µL/min/mg | 0.5 µM | –
CCCc1cnc2c(c1)[C@@H](NC[C@H](O)[C@@H](Cc1cc(F)cc(-c3nccs3)c1)NC(=O)[C@@H](C)OC)CC1(CCC1)O2 [compound 815] | 0.2 µM | – | 204 µL/min/mg | 276 µL/min/mg | – | IC50 (CYP2D6; [12]): 0.6 µM
CC(C)Cc1cnc2c(c1)[C@@H](NC[C@H](O)[C@@H](Cc1cccc(-c3nccs3)c1)NC(=O)[C@@H]1CCCO1)CC1(CCC1)O2 [compound 796] | 0.2 µM | – | 126 µL/min/mg | 58 µL/min/mg | – | IC50 [1, 10]: 0.663 µM; IC50 (CYP2D6; [12]): 0.6 µM
CC1(C)C[C@H]1c1cnc2c(c1)[C@@H](NC[C@@H](O)[C@H](Cc1cccc(-c3nccs3)c1)NC(=O)[C@H]1CCCO1)CC1(CCC1)O2 [compound 906] | 0.1 µM | – | 94 µL/min/mg | 63 µL/min/mg | 0.4 µM | –
COCC(=O)N[C@@H](Cc1cccc(F)c1)[C@H](O)CN[C@H]1CC2(CCC2)Oc2c(-c3ccncc3)cc(CC(C)(C)Cl)cc21 [compound 536] | ≥ 27 µM | – | – | – | – | IC50 [1, 13]: 0.011 µM; IC50 [3, 14]: 0.019 µM; IC50 (CYP2D6; [12]): ≥ 27 µM
CC(C)(C)Cc1cnc2c(c1)[C@@H](NC[C@@H](O)[C@H](Cc1cccc(C#N)c1)NC(=O)c1ncccc1F)CC1(CC(F)(F)C1)O2 [compound 473] | 0.6 µM | – | – | 775 µL/min/mg | 2.4 µM | IC50 [1, 17]: 0.063 µM; IC50 [3, 18]: 0.009 µM
COCC(=O)N[C@@H](Cc1ccc(F)cc1)[C@H](O)CN[C@H]1CC2(CCC2)Oc2c1cc(CC(C)(C)C)nc2-n1ccnc1 [compound 448] | 0.1 µM | – | – | 79 µL/min/mg | 1.8 µM | IC50 [1, 17]: 0.153 µM; IC50 [3, 18]: 0.106 µM
CO[C@H](C)C(=O)N[C@@H](Cc1cc(F)cc(F)c1)[C@H](O)CN[C@H]1CC2(CCC2)Oc2c1cc(CC(C)(C)C)nc2-c1ccncc1 [compound 583] | – | 80 µL/min/mg | – | – | – | IC50 [1, 8]: 0.03 µM; HLM ([2]; human liver microsomes): 14 µL/min/mg; IC50 [3, 9]: 0.015 µM; IC50 (CYP2D6; 2D6 IC50, CYP2D6 inhibition): 1.2 µM
CO[C@H](C)C(=O)N[C@@H](Cc1cc(F)cc(F)c1)[C@H](O)CN[C@H]1CC2(CCC2)Oc2c(-c3cncn3C)cc(CC(C)C)cc21 [compound 622] | – | 161 µL/min/mg | – | – | – | IC50 [1, 8]: 0.007 µM; HLM ([2]; human liver microsomes): 32 µL/min/mg; IC50 [3, 9]: 0.026 µM; IC50 (CYP2D6; 2D6 IC50, CYP2D6 inhibition): 6.6 µM
CC(=O)N[C@@H](Cc1cc(F)cc(F)c1)[C@H](O)CN[C@H]1CC2(CCC2)Oc2c1cc(C1CC1)cc2-n1ccnc1 [compound 705] | – | 36 µL/min/mg | – | – | – | IC50 [1, 5]: 0.013 µM; HLM ([2]; human liver microsomes): 51 µL/min/mg; IC50 [3, 6]: 0.032 µM; IC50 (CYP2D6; [7]): 0.6 µM
C#Cc1cccc(C[C@H](NC(=O)[C@H]2CCCO2)[C@H](O)CN[C@H]2CC3(CCC3)Oc3ncc(CC(C)(C)C)cc32)c1 [compound 896] | – | – | 45 µL/min/mg | 73 µL/min/mg | 3.8 µM | IC50 [1, 15]: 0.009 µM; IC50 [3, 11]: 0.006 µM
